Measured values reported in ChEMBL document CHEMBL3217532, “New analyses of MIC90 data to aid antibacterial drug discovery” (2011).
Values after ≈ are worked out from the molar mass of the structure shown.

Tests used:
Format in all cases: functional
Pseudomonas aeruginosa [1] = assay: Antimicrobial activity against Pseudomonas aeruginosa 1765-00
Pseudomonas aeruginosa [2] = assay: Antimicrobial activity against Pseudomonas aeruginosa 1521-08
Pseudomonas aeruginosa [3] = assay: Antimicrobial activity against Pseudomonas aeruginosa PA-4990
Pseudomonas aeruginosa [4] = assay: Antimicrobial activity against Pseudomonas aeruginosa PA-4993
Pseudomonas aeruginosa [5] = assay: Antimicrobial activity against Pseudomonas aeruginosa PA-1757
Pseudomonas aeruginosa [6] = assay: Antimicrobial activity against Pseudomonas aeruginosa 1570-05
Pseudomonas aeruginosa [7] = assay: Antimicrobial activity against Pseudomonas aeruginosa PA-4997
Pseudomonas aeruginosa [8] = assay: Antimicrobial activity against Pseudomonas aeruginosa 1611-09
Pseudomonas aeruginosa [9] = assay: Antimicrobial activity against Pseudomonas aeruginosa 1767-00
Pseudomonas aeruginosa [10] = assay: Antimicrobial activity against Pseudomonas aeruginosa 1761-00
Pseudomonas aeruginosa [11] = assay: Antimicrobial activity against Pseudomonas aeruginosa 1569-05
Pseudomonas aeruginosa [12] = assay: Antimicrobial activity against Pseudomonas aeruginosa 1565-05
Pseudomonas aeruginosa [13] = assay: Antimicrobial activity against Pseudomonas aeruginosa 1952-00
Pseudomonas aeruginosa [14] = assay: Antimicrobial activity against Pseudomonas aeruginosa 1561-05
Pseudomonas aeruginosa [15] = assay: Antimicrobial activity against Pseudomonas aeruginosa 1613-09
Pseudomonas aeruginosa [16] = assay: Antimicrobial activity against Pseudomonas aeruginosa 1619-08
Pseudomonas aeruginosa [17] = assay: Antimicrobial activity against Pseudomonas aeruginosa 1513-08
Pseudomonas aeruginosa [18] = assay: Antimicrobial activity against Pseudomonas aeruginosa 1512-08
Pseudomonas aeruginosa [19] = assay: Antimicrobial activity against Pseudomonas aeruginosa 1752-00
Pseudomonas aeruginosa [20] = assay: Antimicrobial activity against Pseudomonas aeruginosa 1563-00
Pseudomonas aeruginosa [21] = assay: Antimicrobial activity against Pseudomonas aeruginosa 1514-08
Pseudomonas aeruginosa [22] = assay: Antimicrobial activity against Pseudomonas aeruginosa 1614-09
Pseudomonas aeruginosa [23] = assay: Antimicrobial activity against Pseudomonas aeruginosa 1768-00
Pseudomonas aeruginosa [24] = assay: Antimicrobial activity against Pseudomonas aeruginosa 1954-00
Pseudomonas aeruginosa [25] = assay: Antimicrobial activity against Pseudomonas aeruginosa 1953-00
Pseudomonas aeruginosa [26] = assay: Antimicrobial activity against Pseudomonas aeruginosa PA-4624
Pseudomonas aeruginosa [27] = assay: Antimicrobial activity against Pseudomonas aeruginosa 1564-05
Pseudomonas aeruginosa [28] = assay: Antimicrobial activity against Pseudomonas aeruginosa 1955-00
Pseudomonas aeruginosa [29] = assay: Antimicrobial activity against Pseudomonas aeruginosa 1566-05
Pseudomonas aeruginosa [30] = assay: Antimicrobial activity against Pseudomonas aeruginosa PA-4995
Pseudomonas aeruginosa [31] = assay: Antimicrobial activity against Pseudomonas aeruginosa 1523-08
Pseudomonas aeruginosa [32] = assay: Antimicrobial activity against Pseudomonas aeruginosa 1527-08
Pseudomonas aeruginosa [33] = assay: Antimicrobial activity against Pseudomonas aeruginosa 1615-09
Pseudomonas aeruginosa [34] = assay: Antimicrobial activity against Pseudomonas aeruginosa 1753-00
Pseudomonas aeruginosa [35] = assay: Antimicrobial activity against Pseudomonas aeruginosa 1515-08
Pseudomonas aeruginosa [36] = assay: Antimicrobial activity against Pseudomonas aeruginosa 1567-05
Pseudomonas aeruginosa [37] = assay: Antimicrobial activity against Pseudomonas aeruginosa 1766-00
Pseudomonas aeruginosa [38] = assay: Antimicrobial activity against Pseudomonas aeruginosa 1526-08
Pseudomonas aeruginosa [39] = assay: Antimicrobial activity against Pseudomonas aeruginosa 1612-09
Pseudomonas aeruginosa [40] = assay: Antimicrobial activity against Pseudomonas aeruginosa 1957-00
Pseudomonas aeruginosa [41] = assay: Antimicrobial activity against Pseudomonas aeruginosa 1760-00
Pseudomonas aeruginosa [42] = assay: Antimicrobial activity against Pseudomonas aeruginosa PA-4999
Pseudomonas aeruginosa [43] = assay: Antimicrobial activity against Pseudomonas aeruginosa PA-4991
Pseudomonas aeruginosa [44] = assay: Antimicrobial activity against Pseudomonas aeruginosa 1951-00
Pseudomonas aeruginosa [45] = assay: Antimicrobial activity against Pseudomonas aeruginosa 1562-05
Pseudomonas aeruginosa [46] = assay: Antimicrobial activity against Pseudomonas aeruginosa 1764-00
Pseudomonas aeruginosa [47] = assay: Antimicrobial activity against Pseudomonas aeruginosa 1509-08
Pseudomonas aeruginosa [48] = assay: Antimicrobial activity against Pseudomonas aeruginosa 1956-00
Pseudomonas aeruginosa [49] = assay: Antimicrobial activity against Pseudomonas aeruginosa PA-75
Pseudomonas aeruginosa [50] = assay: Antimicrobial activity against Pseudomonas aeruginosa 1510-08
Pseudomonas aeruginosa [51] = assay: Antimicrobial activity against Pseudomonas aeruginosa 1568-05

C[C@@H](O)[C@H]1C(=O)N2C(C(=O)O)=C(S[C@@H]3CN[C@H](C(=O)N(C)C)C3)[C@H](C)[C@H]12 [MEROPENEM]
MIC90 (Pseudomonas aeruginosa [1]): 2 µg/mL (≈ 5.22 µM) | MIC90 (Pseudomonas aeruginosa [2]): > 64 µg/mL | MIC90 (Pseudomonas aeruginosa [3]): 32 µg/mL (≈ 83.4 µM) | MIC90 (Pseudomonas aeruginosa [4]): > 64 µg/mL | MIC90 (Pseudomonas aeruginosa [5]): 4 µg/mL (≈ 10.4 µM) | MIC90 (Pseudomonas aeruginosa [6]): 0.25 µg/mL (≈ 0.652 µM) | MIC90 (Pseudomonas aeruginosa [7]): 64 µg/mL (≈ 167 µM) | MIC90 (Pseudomonas aeruginosa [8]): 4 µg/mL (≈ 10.4 µM) | MIC90 (Pseudomonas aeruginosa [9]): 0.5 µg/mL (≈ 1.3 µM) | MIC90 (Pseudomonas aeruginosa [10]): 2 µg/mL (≈ 5.22 µM) | MIC90 (Pseudomonas aeruginosa [11]): 0.25 µg/mL (≈ 0.652 µM) | MIC90 (Pseudomonas aeruginosa [12]): 0.5 µg/mL (≈ 1.3 µM) | MIC90 (Pseudomonas aeruginosa [13]): 2 µg/mL (≈ 5.22 µM) | MIC90 (Pseudomonas aeruginosa [14]): 2 µg/mL (≈ 5.22 µM) | MIC90 (Pseudomonas aeruginosa [15]): 0.25 µg/mL (≈ 0.652 µM) | MIC90 (Pseudomonas aeruginosa [16]): 4 µg/mL (≈ 10.4 µM) | MIC90 (Pseudomonas aeruginosa [17]): 32 µg/mL (≈ 83.4 µM) | MIC90 (Pseudomonas aeruginosa [18]): > 64 µg/mL | MIC90 (Pseudomonas aeruginosa [19]): 0.125 µg/mL (≈ 0.326 µM) | MIC90 (Pseudomonas aeruginosa [20]): 2 µg/mL (≈ 5.22 µM) | MIC90 (Pseudomonas aeruginosa [21]): > 64 µg/mL | MIC90 (Pseudomonas aeruginosa [22]): 4 µg/mL (≈ 10.4 µM) | MIC90 (Pseudomonas aeruginosa [23]): 0.5 µg/mL (≈ 1.3 µM) | MIC90 (Pseudomonas aeruginosa [24]): 0.25 µg/mL (≈ 0.652 µM) | MIC90 (Pseudomonas aeruginosa [25]): 2 µg/mL (≈ 5.22 µM) | MIC90 (Pseudomonas aeruginosa [26]): 0.25 µg/mL (≈ 0.652 µM) | MIC90 (Pseudomonas aeruginosa [27]): 2 µg/mL (≈ 5.22 µM) | MIC90 (Pseudomonas aeruginosa [28]): 1 µg/mL (≈ 2.61 µM) | MIC90 (Pseudomonas aeruginosa [29]): 0.5 µg/mL (≈ 1.3 µM) | MIC90 (Pseudomonas aeruginosa [30]): 16 µg/mL (≈ 41.7 µM) | MIC90 (Pseudomonas aeruginosa [31]): 64 µg/mL (≈ 167 µM) | MIC90 (Pseudomonas aeruginosa [32]): 8 µg/mL (≈ 20.9 µM) | MIC90 (Pseudomonas aeruginosa [33]): 2 µg/mL (≈ 5.22 µM) | MIC90 (Pseudomonas aeruginosa [34]): 0.125 µg/mL (≈ 0.326 µM) | MIC90 (Pseudomonas aeruginosa [35]): 32 µg/mL (≈ 83.4 µM) | MIC90 (Pseudomonas aeruginosa [36]): 0.5 µg/mL (≈ 1.3 µM) | MIC90 (Pseudomonas aeruginosa [37]): 2 µg/mL (≈ 5.22 µM) | MIC90 (Pseudomonas aeruginosa [38]): > 64 µg/mL | MIC90 (Pseudomonas aeruginosa [39]): 16 µg/mL (≈ 41.7 µM) | MIC90 (Pseudomonas aeruginosa [40]): 0.125 µg/mL (≈ 0.326 µM) | MIC90 (Pseudomonas aeruginosa [41]): 4 µg/mL (≈ 10.4 µM) | MIC90 (Pseudomonas aeruginosa [42]): 8 µg/mL (≈ 20.9 µM) | MIC90 (Pseudomonas aeruginosa [43]): 8 µg/mL (≈ 20.9 µM) | MIC90 (Pseudomonas aeruginosa [44]): 0.06 µg/mL (≈ 0.156 µM) | MIC90 (Pseudomonas aeruginosa [45]): 4 µg/mL (≈ 10.4 µM) | MIC90 (Pseudomonas aeruginosa [46]): 2 µg/mL (≈ 5.22 µM) | MIC90 (Pseudomonas aeruginosa [47]): > 64 µg/mL | MIC90 (Pseudomonas aeruginosa [48]): 0.5 µg/mL (≈ 1.3 µM) | MIC90 (Pseudomonas aeruginosa [49]): 0.5 µg/mL (≈ 1.3 µM) | MIC90 (Pseudomonas aeruginosa [50]): > 64 µg/mL | MIC90 (Pseudomonas aeruginosa [51]): 0.5 µg/mL (≈ 1.3 µM)
